pIC50: −log10 of the molar value. In brackets after ≈: the same amount, converted by molar mass. Several values for one entry are separate records, joined by “and”; a condition that tells them apart may be missing. Identical values can stand only once. Like-named read-outs stand apart in the source and are kept apart here.
Experiments:
[1] = Mouse acute efficacy study: mice weight and adverse effects
[2] = system: DPX2 cells; settings: for DPX2 Viability @ 6.25 μM: 24 h; for DPX2 Viability @ 25 μM: human
[3] = system: MTB H37Rv ATCC 27294; assay: MIC, microplate Alamar Blue assay (MABA); format: cell-based, Mycobacterium tuberculosis
[4] = system: M. tuberculosis H37Rv; assay: Minimum bactericidal concentration (MBC, CFU Assay); format: cell-based, Mycobacterium tuberculosis
[5] = format: in vivo, BALB/c mice
Procedure: For i.v. dosing, the vehicle DMSO/PEG-400/PBS (1×) (5/60/35) was used. Female ˜20 g BALB/c mice (7-9 weeks old) were used in the study. Three mice were used for each set of conditions. […] Plasma concentrations were determined over 24 hrs in the single day study and on days 1 and 5 in the 5 day study. Lung exposure was also determined in the 1 day study at 24 hrs post dosing and on day 5 of the 5 day study at 4 hrs and 24 hrs post dosing. Compound concentrations were determined by reverse phase HPLC-MS against a standard curve.

[6] = system: VERO cells (ATCC CRL-81); assay: Vero cell toxicity; format: cell-based; settings: Chlorocebus sabaeus, Vero; 72 hours exposure
Procedure: Cytotoxicity for a mammalian cell line was determined by exposing VERO cells (ATCC CRL-81) to serial dilutions of test compounds for 72 hours, followed by addition of resazurin and measurement of fluorescence after 4 hours incubation (Choules, et al., Antimnicrob. Agents Chemother. 2019, 63, e02204-02218).

[7] = system: M. tuberculosis Erdman; assay: Mouse acute efficacy study (lung CFU); format: in vivo, BALB/c mice; settings: for CFU/Mouse: day 21
[8] = format: in vivo, BALB/c mice; settings: Day 1, Five Day Study, 4 hr
[9] = target: T1, E. coli WT RNAP (Escherichia coli, UniProt P0A8V2); assay: biochemical
T1 construct: made in house
T1 sequence (P0A8V2 whole entry): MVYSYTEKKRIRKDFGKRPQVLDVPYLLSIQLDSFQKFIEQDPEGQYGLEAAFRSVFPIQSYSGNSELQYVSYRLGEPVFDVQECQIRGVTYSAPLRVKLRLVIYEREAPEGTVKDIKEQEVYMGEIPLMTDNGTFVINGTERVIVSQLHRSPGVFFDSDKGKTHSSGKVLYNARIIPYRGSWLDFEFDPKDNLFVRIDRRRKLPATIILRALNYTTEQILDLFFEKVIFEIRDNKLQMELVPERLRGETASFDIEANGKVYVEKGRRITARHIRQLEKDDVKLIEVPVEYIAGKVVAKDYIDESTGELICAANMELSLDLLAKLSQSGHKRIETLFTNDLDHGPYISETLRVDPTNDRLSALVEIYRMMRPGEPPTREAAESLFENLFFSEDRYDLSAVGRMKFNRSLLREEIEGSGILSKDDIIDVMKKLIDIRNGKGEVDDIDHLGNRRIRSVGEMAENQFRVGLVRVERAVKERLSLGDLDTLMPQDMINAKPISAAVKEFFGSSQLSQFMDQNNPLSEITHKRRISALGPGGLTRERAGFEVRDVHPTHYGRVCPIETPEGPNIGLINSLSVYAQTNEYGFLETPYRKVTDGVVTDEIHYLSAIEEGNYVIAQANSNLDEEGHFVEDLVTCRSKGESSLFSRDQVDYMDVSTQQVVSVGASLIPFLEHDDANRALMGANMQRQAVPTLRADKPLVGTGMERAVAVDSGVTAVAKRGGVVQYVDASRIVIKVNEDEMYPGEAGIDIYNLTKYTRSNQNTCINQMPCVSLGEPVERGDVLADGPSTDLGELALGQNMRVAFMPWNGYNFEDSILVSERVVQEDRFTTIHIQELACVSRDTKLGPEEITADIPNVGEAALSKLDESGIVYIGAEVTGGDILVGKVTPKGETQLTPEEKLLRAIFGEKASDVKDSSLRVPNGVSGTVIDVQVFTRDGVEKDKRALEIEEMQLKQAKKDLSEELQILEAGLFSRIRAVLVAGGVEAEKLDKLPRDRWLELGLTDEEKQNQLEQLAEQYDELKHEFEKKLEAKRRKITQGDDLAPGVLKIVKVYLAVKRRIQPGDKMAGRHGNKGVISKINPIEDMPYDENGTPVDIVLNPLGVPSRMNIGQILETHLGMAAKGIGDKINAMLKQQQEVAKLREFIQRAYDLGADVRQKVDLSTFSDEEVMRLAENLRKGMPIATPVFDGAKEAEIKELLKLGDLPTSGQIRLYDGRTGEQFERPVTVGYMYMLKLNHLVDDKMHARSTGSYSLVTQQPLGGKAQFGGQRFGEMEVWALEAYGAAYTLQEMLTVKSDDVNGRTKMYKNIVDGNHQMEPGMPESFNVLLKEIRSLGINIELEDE
T1 sequence (P0A8T7 whole entry partner): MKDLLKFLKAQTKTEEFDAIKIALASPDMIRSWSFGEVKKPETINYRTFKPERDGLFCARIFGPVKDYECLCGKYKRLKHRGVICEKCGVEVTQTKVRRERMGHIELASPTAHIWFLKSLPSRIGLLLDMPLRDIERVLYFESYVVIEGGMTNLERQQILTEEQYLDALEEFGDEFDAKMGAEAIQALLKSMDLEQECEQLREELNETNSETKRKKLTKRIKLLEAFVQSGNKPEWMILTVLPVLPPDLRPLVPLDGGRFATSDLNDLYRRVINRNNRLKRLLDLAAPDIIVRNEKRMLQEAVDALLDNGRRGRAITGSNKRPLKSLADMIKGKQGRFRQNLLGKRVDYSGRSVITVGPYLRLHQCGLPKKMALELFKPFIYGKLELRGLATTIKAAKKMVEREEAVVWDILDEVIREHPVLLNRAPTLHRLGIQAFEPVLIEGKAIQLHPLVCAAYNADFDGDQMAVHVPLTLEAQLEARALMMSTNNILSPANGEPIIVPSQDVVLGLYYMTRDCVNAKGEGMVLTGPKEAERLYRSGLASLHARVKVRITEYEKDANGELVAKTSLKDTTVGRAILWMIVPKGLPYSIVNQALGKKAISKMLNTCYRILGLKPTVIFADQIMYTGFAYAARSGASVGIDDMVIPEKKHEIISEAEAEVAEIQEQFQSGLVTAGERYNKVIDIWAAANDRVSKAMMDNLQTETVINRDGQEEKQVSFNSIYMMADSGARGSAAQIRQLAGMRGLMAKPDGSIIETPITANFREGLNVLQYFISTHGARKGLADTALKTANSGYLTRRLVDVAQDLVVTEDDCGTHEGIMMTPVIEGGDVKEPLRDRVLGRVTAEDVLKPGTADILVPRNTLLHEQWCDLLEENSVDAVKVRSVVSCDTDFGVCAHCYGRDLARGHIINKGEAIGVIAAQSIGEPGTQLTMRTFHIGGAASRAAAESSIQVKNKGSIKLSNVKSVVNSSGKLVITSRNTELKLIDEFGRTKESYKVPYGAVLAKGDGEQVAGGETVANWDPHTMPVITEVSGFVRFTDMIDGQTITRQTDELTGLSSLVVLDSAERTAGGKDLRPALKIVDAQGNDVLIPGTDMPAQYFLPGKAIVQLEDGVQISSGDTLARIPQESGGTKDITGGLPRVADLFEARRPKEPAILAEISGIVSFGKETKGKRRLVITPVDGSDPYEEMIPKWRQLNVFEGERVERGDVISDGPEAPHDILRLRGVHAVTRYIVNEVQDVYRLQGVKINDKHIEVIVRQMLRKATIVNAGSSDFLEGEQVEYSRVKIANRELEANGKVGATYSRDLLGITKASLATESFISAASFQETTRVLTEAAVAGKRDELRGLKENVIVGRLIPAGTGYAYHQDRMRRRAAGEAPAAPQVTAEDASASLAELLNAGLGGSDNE
T1 sequence (P0A7Z4 whole entry partner): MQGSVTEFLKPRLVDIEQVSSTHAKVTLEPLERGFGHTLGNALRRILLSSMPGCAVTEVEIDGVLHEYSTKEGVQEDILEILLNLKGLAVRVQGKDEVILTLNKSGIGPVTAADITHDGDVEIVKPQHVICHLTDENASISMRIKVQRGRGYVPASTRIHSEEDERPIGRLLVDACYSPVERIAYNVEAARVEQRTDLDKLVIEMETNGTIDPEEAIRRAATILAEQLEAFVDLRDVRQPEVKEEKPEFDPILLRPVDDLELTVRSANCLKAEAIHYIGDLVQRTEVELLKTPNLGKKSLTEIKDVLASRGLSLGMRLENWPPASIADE
T1 sequence (P0A800 whole entry partner): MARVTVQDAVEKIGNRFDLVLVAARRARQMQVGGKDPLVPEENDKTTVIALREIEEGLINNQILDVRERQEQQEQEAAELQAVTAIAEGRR
T1 sequence (P00579 whole entry partner): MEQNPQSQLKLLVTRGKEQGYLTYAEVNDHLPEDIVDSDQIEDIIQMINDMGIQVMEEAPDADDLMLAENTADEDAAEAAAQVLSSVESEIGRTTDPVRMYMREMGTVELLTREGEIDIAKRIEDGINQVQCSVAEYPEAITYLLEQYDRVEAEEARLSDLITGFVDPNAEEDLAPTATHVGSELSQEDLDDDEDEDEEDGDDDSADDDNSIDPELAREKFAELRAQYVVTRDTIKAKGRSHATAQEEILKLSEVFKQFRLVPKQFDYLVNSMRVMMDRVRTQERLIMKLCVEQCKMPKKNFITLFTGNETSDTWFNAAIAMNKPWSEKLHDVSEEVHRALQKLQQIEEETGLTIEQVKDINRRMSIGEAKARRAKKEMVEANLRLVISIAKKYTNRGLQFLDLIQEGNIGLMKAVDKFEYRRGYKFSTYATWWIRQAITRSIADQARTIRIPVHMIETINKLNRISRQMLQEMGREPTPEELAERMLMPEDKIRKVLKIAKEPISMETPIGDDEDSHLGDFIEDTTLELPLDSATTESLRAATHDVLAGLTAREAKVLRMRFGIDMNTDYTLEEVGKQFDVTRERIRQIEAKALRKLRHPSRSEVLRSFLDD

[10] = target: hPXR (Homo sapiens, UniProt O75469); settings: cited from earlier work
[11] = human trials; cited from earlier work
[12] = target: T2, human pregnane X receptor (hPXR) (Homo sapiens, UniProt O75469)
T2 sequence (O75469 1-434): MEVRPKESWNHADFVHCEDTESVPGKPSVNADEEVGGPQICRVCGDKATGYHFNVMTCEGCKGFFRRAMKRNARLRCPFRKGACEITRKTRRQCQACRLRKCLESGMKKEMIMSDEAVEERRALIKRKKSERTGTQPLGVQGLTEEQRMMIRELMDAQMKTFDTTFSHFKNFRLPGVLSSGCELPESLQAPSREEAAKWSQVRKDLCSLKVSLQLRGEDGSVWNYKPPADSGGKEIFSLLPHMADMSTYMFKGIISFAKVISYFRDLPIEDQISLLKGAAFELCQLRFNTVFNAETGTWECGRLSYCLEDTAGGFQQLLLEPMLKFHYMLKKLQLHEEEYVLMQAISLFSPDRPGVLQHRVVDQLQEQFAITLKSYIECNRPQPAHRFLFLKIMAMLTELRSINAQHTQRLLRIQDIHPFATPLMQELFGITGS

[13] = system: MTB H37Rv; settings: cited from earlier work
[14] = mouse, in vivo
[15] = 100 mg/kg QD, PEG-water vehicle
[16] = Mycobacterium tuberculosis, MTB H37Rv ATCC 27294, microplate Alamar Blue assay, lowest concentration giving ≥90% reduction in fluorescence

Question: Which results are given for `CO[C@H]1/C=C/O[C@@]2(C)Oc3c(C)c(O)c4c(=O)c(c5oc6cc(N7CCN(CC(C)C)CC7)cc(OCc7ccc(CN8CCOCC8)cc7)c6nc-5c4c3C2=O)NC(=O)/C(C)=C\C=C\[C@H](C)[C@H](O)[C@@H](C)[C@@H](O)[C@@H](C)[C@H](OC(C)=O)[C@@H]1C` [Compound 17e, (7S,9E,11S,12R,13S,14R,15R,16R,17S,18S,19E,21Z)-2,15,17-Trihydroxy-11-methoxy-3,7,12,14,16,18,22-heptamethyl-30-[4-(2-methylpropyl)piperazin-1-yl]-32-({4-[(morpholin-4-yl)methyl]phenyl}methoxy)-6,23,37-trioxo-8,27,38-trioxa-24,34-diazahexacyclo[23.11.1.1^4,7.0^5,36.0^26,35.0^28,33]octatriaconta-1(36)2,4,9,19,21,25,28,30,32,34-undecaen-13-yl acetate]?
Answer: Mice Weight (g) Day 0 [1, 15]: 20.4 g; Mice Weight (g) Day 31 [1, 15]: 21.0 g; adverse effects noted in the mice ([1]; 3-week treatment period): no adverse effects; DPX2 Viability @ 6.25 μM [2]: 113%; DPX2 Viability @ 25 μM [2]: 95%; MIC90 MABA Rel to RMP [3]: 0.12; MIC ([3]; Mycobacterium tuberculosis, MTB H37Rv ATCC 27294, microplate Alamar Blue assay, lowest concentration giving ≥90% reduction in fluorescence, read-out: MIC90 MABA): 5 nM; MBC better than that of rifampin [4]: ~5 fold; Plasma concentration, Avg ([5]; Day 1, Five Day Study, 4 hr): 360 ng/mL and 319 nM; Lung Homogenate concentration, Avg ([5]; Day 1, One Day Study, 24 hr): 164 ng/mL and 145 nM; Plasma concentration, Avg ([5]; Day 1, One Day Study, 24 hr): 327 ng/mL and 289 nM; Lung Homogenate concentration, Avg ([5]; Day 5, Five Day Study, 4 hr): 323 ng/mL and 286 nM; Plasma concentration, Avg ([5]; Day 5, Five Day Study, 4 hr): 688 ng/mL and 608 nM; Lung Homogenate concentration, Avg ([5]; Day 5, Five Day Study, 24 hr): 41 ng/mL and 36 nM; Plasma concentration, Avg ([5]; Day 5, Five Day Study, 24 hr): 121 ng/mL and 107 nM; pIC50 [6]: < 5.00; effectiveness versus rifampin control at 15 mg/kg in the same vehicle ([7]; 100 mg/kg PO): at least equal in effectiveness; CFU/Mouse [7, 15]: 4,029; Lung Homogenate concentration, Avg [8]: 248 ng/mL and 219 nM; pIC50 [9]: 7.85

Question: With `CO[C@H]1/C=C/O[C@@]2(C)Oc3c(C)c(O)c4c(=O)c(c5oc6cc(N7CCN(CC(C)C)CC7)cc(O)c6nc-5c4c3C2=O)NC(=O)/C(C)=C\C=C\[C@H](C)[C@H](O)[C@@H](C)[C@@H](O)[C@@H](C)[C@H](OC(C)=O)[C@@H]1C` [RLZ, rifalazil, reference compound] as the molecule, how does the hPXR activation [10] read?
Answer: does not activate

Question: And the “DPX2 Viability @ 6.25 μM” value [2]?
Answer: 108%

Question: What about the “loss of cell viability” value ([2]; at 100 pt) of the same molecule?
Answer: ~2 fold

Question: And the “DPX2 Viability @ 25 μM” value [2]?
Answer: 96%

Question: What about the “MIC90 MABA Rel to RMP” value [3] of the same molecule?
Answer: 0.04

Question: And the MIC90 [3, 16]?
Answer: 0.0011 µM (≈ 0.00104 µg/mL)

Question: And the half-life [11]?
Answer: 60 to 100 h

Question: What about the “activation of hPXR” value [12] of the same molecule?
Answer: no activation

Question: And the “more potent than RMP against MTB H37Rv in vitro” value [13]?
Answer: 29 fold

Question: Which results are given for `CO[C@H]1/C=C/O[C@@]2(C)Oc3c(C)c(O)c4c(O)c(c(/C=N/N5CCN(C)CC5)c(O)c4c3C2=O)NC(=O)/C(C)=C\C=C\[C@H](C)[C@H](O)[C@@H](C)[C@@H](O)[C@@H](C)[C@H](OC(C)=O)[C@@H]1C` [RMP, rifampin, reference compound]?
Answer: adverse effects noted in the mice [14]: no adverse effects; MIC90 MABA Rel to RMP ([3]; MABA MIC90 relative to rifampin (RMP = 1)): 1; MIC90 [3, 16]: 0.027 µM (≈ 0.0222 µg/mL); MBC99 Day 7 (CFU Assay) MBC99 Rel to RMP ([4]; CFU Assay MBC99 relative to rifampin (RMP = 1)): 1; MBC ([4]; Mycobacterium tuberculosis, 168 h, Day 7, M. tuberculosis H37Rv, ≥99% reduction in colony forming units, read-out: MBC99 Day 7 (CFU Assay) MBC99): 0.13 µM (≈ 0.107 µg/mL); pIC50 [6]: < 4.00; CFU/Mouse ([7]; 15 mg/kg QD, CMC-Tween vehicle): 857; CFU/Mouse ([7]; 15 mg/kg QD, PEG-water vehicle): 8,443
